From PMC6437697 (Journal of Medicinal Chemistry, 2019) come the findings set out here.

Holding throughout (assay): KINOMEscan
Holding throughout (format): binding
What all share (settings): read-out: % control activity remaining

The target of one assay is T1, AURKA (Homo sapiens, UniProt O14965).
T1 construct: purchased Eurofins DiscoverX KINOMEscan
T1 sequence (O14965 1-403): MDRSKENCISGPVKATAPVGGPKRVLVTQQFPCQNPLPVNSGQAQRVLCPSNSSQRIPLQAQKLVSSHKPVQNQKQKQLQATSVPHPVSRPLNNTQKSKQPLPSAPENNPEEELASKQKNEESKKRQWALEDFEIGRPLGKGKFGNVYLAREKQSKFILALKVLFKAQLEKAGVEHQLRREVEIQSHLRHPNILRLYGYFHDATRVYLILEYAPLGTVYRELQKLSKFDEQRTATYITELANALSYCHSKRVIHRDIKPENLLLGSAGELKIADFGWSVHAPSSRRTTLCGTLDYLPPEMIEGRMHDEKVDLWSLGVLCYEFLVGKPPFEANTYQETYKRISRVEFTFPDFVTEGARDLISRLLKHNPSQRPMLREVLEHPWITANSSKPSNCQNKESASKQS

The next assay deals with T2, CASK (Homo sapiens, UniProt O14936).
T2 construct: purchased Eurofins DiscoverX KINOMEscan
T2 sequence (O14936 1-926): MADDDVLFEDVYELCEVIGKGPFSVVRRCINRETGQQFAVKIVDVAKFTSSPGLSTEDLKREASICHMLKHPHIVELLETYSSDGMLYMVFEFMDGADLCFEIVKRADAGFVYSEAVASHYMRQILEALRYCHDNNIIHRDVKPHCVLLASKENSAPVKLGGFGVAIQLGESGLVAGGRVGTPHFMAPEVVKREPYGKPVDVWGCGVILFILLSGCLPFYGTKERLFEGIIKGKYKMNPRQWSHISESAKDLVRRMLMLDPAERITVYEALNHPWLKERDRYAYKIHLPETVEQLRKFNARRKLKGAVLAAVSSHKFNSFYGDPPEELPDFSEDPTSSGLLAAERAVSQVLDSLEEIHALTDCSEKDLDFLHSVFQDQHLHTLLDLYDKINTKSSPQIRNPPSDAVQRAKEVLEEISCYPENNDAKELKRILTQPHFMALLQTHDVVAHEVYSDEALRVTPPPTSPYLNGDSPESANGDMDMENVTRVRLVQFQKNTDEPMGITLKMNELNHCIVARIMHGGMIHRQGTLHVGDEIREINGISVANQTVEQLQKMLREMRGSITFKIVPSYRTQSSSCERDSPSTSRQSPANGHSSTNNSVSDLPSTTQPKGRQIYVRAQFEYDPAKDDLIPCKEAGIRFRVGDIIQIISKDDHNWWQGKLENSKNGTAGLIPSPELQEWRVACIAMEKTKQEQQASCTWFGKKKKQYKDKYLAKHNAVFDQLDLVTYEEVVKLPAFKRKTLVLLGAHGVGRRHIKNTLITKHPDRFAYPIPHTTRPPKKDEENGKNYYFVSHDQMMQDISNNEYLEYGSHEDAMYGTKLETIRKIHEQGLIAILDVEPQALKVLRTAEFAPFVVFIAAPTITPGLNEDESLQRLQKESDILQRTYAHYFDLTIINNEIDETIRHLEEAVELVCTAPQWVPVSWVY

The target of another assay is T3, EGFR (Homo sapiens, UniProt P00533).
T3 construct: purchased Eurofins DiscoverX KINOMEscan
T3 sequence (P00533 25-1210 limits assumed): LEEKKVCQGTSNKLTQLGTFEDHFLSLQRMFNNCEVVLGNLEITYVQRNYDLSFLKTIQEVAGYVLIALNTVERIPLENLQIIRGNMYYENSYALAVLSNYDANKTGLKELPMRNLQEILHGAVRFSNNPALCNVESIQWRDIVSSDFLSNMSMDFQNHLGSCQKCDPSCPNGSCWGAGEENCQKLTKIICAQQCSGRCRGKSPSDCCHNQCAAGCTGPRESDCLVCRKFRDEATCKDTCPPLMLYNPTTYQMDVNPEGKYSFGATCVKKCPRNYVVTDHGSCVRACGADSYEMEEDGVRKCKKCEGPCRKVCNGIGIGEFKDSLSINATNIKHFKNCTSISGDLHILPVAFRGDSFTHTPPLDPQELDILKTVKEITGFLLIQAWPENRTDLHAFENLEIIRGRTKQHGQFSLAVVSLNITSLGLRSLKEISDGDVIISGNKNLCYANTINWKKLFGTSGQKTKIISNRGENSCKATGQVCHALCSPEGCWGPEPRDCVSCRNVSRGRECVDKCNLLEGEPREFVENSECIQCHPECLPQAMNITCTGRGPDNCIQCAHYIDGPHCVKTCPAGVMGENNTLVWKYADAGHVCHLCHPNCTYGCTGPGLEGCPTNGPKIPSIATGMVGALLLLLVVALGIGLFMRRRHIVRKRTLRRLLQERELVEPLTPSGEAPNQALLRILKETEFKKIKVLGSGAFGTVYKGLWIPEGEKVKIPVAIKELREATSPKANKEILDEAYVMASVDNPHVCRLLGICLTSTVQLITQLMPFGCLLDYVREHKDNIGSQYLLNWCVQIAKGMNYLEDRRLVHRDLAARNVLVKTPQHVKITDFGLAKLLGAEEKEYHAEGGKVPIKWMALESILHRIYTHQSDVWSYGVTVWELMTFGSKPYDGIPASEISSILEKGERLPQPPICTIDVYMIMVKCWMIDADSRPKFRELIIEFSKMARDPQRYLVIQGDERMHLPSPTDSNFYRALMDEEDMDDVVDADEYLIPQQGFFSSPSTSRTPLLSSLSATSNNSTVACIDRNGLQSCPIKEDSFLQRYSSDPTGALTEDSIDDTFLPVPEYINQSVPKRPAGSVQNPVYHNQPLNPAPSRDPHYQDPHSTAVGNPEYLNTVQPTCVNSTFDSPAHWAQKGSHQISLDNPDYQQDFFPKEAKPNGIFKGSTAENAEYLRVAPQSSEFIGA

The target in the next assay is T4, HASPIN (Homo sapiens, UniProt Q8TF76).
T4 construct: purchased Eurofins DiscoverX KINOMEscan
T4 sequence (Q8TF76 1-798): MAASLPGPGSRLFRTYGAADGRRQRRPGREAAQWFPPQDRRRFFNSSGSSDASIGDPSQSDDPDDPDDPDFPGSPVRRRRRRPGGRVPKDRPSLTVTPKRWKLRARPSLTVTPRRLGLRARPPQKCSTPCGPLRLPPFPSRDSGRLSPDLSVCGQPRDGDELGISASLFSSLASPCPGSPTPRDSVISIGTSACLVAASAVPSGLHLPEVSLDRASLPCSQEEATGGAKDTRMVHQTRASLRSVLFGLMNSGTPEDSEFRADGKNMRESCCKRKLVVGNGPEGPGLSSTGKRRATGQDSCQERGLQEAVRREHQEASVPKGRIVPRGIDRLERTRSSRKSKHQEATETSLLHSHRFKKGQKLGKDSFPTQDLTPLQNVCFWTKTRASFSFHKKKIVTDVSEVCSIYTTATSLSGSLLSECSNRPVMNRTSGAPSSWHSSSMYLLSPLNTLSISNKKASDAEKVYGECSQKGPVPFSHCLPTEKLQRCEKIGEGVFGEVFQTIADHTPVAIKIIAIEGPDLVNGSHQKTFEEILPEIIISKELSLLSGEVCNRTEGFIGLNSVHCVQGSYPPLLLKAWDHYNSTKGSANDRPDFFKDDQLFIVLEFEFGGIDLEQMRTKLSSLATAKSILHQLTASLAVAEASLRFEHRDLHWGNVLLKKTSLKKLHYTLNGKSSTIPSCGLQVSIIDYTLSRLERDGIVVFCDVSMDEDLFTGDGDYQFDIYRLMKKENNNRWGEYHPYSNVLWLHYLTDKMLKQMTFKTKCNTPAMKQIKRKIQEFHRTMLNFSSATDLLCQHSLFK

In a further assay the target is T5, MARK3 (Homo sapiens, UniProt P27448).
T5 construct: purchased Eurofins DiscoverX KINOMEscan
T5 sequence (P27448 whole entry): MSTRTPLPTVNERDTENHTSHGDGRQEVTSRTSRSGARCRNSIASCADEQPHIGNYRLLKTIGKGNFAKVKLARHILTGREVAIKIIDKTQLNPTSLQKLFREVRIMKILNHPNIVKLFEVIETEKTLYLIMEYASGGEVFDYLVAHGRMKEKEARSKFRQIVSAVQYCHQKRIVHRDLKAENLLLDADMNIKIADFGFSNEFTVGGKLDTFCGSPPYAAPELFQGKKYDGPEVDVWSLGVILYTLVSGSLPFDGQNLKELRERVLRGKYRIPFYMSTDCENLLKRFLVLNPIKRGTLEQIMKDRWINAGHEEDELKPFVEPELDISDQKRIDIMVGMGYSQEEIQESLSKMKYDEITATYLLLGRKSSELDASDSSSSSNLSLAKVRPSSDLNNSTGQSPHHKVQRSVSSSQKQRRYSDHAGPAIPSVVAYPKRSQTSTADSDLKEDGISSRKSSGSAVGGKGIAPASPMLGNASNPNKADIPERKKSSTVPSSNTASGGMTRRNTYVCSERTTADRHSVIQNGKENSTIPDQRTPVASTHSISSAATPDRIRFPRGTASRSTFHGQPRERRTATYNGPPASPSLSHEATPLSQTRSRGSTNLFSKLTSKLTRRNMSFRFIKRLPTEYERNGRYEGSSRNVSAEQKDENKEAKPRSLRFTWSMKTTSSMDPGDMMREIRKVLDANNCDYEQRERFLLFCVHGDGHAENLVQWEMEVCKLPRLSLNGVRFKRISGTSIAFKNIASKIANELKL

A further assay has as its target T6, MTOR (Homo sapiens, UniProt P42345).
T6 construct: purchased Eurofins DiscoverX KINOMEscan

For the next assay, the target named is T7, NIM1 (Homo sapiens, UniProt Q8IY84).
T7 construct: purchased Eurofins DiscoverX KINOMEscan
T7 sequence (Q8IY84 whole entry): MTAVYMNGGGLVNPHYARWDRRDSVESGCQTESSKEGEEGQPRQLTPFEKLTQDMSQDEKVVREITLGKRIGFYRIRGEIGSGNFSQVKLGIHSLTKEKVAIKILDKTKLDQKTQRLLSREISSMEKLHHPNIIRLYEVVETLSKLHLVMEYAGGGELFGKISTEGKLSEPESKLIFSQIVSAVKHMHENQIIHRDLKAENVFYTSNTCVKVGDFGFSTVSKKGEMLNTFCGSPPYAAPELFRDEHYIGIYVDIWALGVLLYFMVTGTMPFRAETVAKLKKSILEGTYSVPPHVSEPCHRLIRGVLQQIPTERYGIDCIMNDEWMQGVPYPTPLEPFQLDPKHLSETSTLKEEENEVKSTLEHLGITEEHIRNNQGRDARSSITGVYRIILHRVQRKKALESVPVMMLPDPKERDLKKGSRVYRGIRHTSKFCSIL

Assay [1] has as its target T8, RPS6KA5(Kin.Dom.1-N-terminal) (Homo sapiens, UniProt O75582).
T8 construct: RPS6KA5(Kin.Dom.1-N-terminal); purchased Eurofins DiscoverX KINOMEscan

The target in another assay is T9, S6K1 (Homo sapiens, UniProt P23443).
T9 construct: purchased Eurofins DiscoverX KINOMEscan
T9 sequence (P23443 whole entry): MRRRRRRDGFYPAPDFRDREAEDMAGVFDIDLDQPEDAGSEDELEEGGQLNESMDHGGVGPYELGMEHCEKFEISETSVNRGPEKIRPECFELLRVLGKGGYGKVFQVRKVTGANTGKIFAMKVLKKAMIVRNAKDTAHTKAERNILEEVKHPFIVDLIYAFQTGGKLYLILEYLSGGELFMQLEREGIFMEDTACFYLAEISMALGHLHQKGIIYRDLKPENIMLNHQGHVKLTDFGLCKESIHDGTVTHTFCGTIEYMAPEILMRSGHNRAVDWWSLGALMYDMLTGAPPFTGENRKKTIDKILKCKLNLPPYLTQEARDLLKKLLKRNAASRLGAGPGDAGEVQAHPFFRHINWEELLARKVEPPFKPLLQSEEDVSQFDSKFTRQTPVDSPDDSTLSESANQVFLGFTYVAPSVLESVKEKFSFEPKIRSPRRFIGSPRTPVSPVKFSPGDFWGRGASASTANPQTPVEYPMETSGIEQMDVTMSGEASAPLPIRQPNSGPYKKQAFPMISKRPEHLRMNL

The next assay concerns the target T10, SIK (Homo sapiens, UniProt P57059).
T10 construct: purchased Eurofins DiscoverX KINOMEscan

T10 sequence (P57059 whole entry): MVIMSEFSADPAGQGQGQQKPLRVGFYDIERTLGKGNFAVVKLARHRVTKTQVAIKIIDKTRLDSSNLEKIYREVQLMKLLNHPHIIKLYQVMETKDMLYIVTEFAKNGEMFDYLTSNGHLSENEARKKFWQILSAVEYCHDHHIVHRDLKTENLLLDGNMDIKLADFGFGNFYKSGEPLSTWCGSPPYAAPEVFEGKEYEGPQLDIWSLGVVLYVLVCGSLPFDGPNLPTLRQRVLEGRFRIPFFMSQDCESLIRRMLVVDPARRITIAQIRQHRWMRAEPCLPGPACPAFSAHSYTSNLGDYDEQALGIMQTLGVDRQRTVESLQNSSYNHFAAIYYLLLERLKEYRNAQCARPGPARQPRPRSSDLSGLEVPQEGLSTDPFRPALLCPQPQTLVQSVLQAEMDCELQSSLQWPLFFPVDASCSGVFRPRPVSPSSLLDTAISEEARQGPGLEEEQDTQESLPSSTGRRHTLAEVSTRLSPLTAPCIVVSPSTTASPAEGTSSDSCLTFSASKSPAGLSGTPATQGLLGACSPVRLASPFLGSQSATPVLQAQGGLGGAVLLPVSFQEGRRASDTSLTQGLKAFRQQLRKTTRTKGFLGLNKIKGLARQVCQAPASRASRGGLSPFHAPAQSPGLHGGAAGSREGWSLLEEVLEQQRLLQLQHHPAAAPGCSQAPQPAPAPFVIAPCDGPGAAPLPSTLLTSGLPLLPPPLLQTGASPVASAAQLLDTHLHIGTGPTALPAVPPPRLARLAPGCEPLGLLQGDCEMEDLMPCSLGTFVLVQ
T8 sequence (O75582 49-318 limits assumed): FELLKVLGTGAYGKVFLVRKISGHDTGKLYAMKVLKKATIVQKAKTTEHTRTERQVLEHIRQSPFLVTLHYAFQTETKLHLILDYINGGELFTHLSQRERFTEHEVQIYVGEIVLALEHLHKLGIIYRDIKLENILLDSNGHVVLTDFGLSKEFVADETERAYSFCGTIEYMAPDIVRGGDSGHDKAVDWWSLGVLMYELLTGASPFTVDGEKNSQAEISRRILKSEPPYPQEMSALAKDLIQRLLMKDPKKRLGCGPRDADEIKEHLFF

On to `Clc1cc(NCC2CC2)c2ncc(-c3ccc4[nH]ncc4c3)n2n1` [compound 2, 6-Chloro-N-(cyclopropylmethyl)-3-(1H-indazol-5-yl)imidazo[1,2-b]pyridazin-8-amine], for which the remaining binding at 1 µM is 90% at AURKA; 87% on CASK; 71% at EGFR; 21% on HASPIN; 100% on MARK3; 98% at MTOR. In addition, the remaining binding at 1 µM is 97% at NIM1, 100% in [1], 90% on S6K1 and 98% at SIK.
In the case of `O=C(CN1CCOCC1)N[C@H]1CC[C@H](Nc2cc(Cl)nn3c(-c4ccc5[nH]ncc5c4)cnc23)CC1` [compound 26], the remaining binding at 1 µM on AURKA came out at 98%; at CASK, 59%; on EGFR, 80%; at HASPIN, 22%; at MARK3, 99%; on MTOR, 100%. For the same molecule, the remaining binding at 1 µM worked out at 91% at NIM1, 99% in [1], 88% at S6K1 and 89% on SIK.
In the case of `CN1CCC(CNc2cc(Cl)nn3c(-c4cc5nc(Nc6ccccc6)[nH]c5cc4F)cnc23)CC1` [compound 31, 6-Chloro-3-(6-fluoro-2-(phenylamino)-1H-benzo[d]imidazol-5-yl)-N-((1-methylpiperidin-4-yl)methyl)imidazo[1,2-b]pyridazin-8-amine], the remaining binding at 1 µM at AURKA is 75%; at CASK, 100%; on EGFR, 100%; at HASPIN, 66%; at MARK3 it was 60%; on MTOR, 89%. In addition, the remaining binding at 1 µM worked out at 77% on NIM1, 100% in [1], 95% at S6K1 and 91% on SIK.
